“Also recorded” adds a separate entry of the source.

In this assay the test system is gMSC (registered trademark) 1. The experiment in a line: Experimental cryopreservation of gMSC 1 (scaffold-free, three-dimensional mass of mesenchymal stem cells); cell count after thawing. Type of assay: cell-based, human. Conditions: conclusion from gMSC 1 experiments, constituent added to 10% DMSO + basal medium + albumin. Here is the method:
Primary cultured human synovium-derived MSCs were obtained through the following steps (1) to (4) or were obtained by shredding a tissue into fragments, immersing them in a culture solution (STK1) in a culture vessel, and allowing outgrowth of cells from the tissue fragments.
(1) Synovial tissue was taken from a human.
(2) The obtained synovial tissue was washed with PBS, then the tissue was added to 10 ml of a 0.4% collagenase solution and blended, and allowed to react at 37° C. for 1 to 4 hours.
(3) The resultant product was subjected to filtering and then centrifugation to recover the synovial tissue.
(4) Primary culture was carried out in a STK (registered trademark) 1 in accordance with the instructions from the manufacturer of the STK 1.
The primary cultured cells obtained in the above manner were subcultured and proliferated in a STK (registered trademark) 2 by repeated subculture, in accordance with the instructions from the manufacturer of the STK 2.
MSCs in a sub-confluent state (5th generation: P5) were washed once with phosphate buffered saline (PBS, calcium-free and magnesium-free, PBS(−), Cell Science & Technology Institute, Inc.), then detached with use of a cell detachment agent TrypLE Select CTS (Thermo Fisher Scientific Inc.), were collected, and suspended in a washing medium (DMEM, Sigma). Then, the cells were transferred to a tube for centrifugation, and subjected to centrifugation at 1500 rpm at room temperature for 5 minutes. The separated single cells were further suspended in a washing medium, and the number of cells was counted using trypan blue staining. The cells were inoculated onto a 6-well plate (SUMITOMO BAKELITE CO., LTD.) containing a STK (registered trademark) 2 at a density of 40×10^4 cells/cm^2, and cultured (high-density culture) in an incubator at 37° C. and 5% CO2 for 7 days. Culture media were replaced three days after the inoculation and five days after the inoculation. […]
With `CCCCC/C=C\C/C=C\CCCCCCCC(=O)O` [linoleic acid, Linoleic Acid], the “cryopreservative effect on scaffold-free, three-dimensional mass of mesenchymal stem cells” value (from here on “cryopreservative effect on scaffold-free”) is “effective; also recorded: greater than the cryopreservative effect achieved by methyl-β-cyclodextrin”.
For Phosphatidic acid sodium salt [PA], the “cryopreservative effect on scaffold-free” value is recorded as “effective”.
With Tween 80 [reference compound], the “cryopreservative effect on scaffold-free” value is given as “not effective”.

(Values after patent publication US20200205399A1, “COMPOSITION FOR CRYOPRESERVATION, METHOD FOR PRODUCING CRYOPRESERVED MATERIAL, CELL PREPARATION, METHOD FOR PRODUCING CELL PREPARATION, AND KIT FOR CRYOPRESERVATION” (TWO CELLS Co., Ltd., priority 2017, published 2020).)
